This is an account of results in patent US8729047B2, “Compositions for inhibiting redox-sensitive GTPases” (Board of Regents, The University of Texas System, priority 2010, dated 2014).

Test [1] relates to HME-RhoC cells. Put plainly: Matrigel invasion (cell motility) assay. The conditions noted are these: NO donor alone 10 μM, three days continuous; FIG. 14A. In kind it is cell-based, human. The protocol: FIG. 5. Determination of cell invasiveness in the presence and absence of 6-thiopurine and/or a redox agent. The top chamber of a Transwell filter (6.5 mm with 8 μm pores, Costar; Corning, N.Y.) was coated with a 10 μL aliquot of 10 mg/mL Matrigel (BD Biosciences, Bedford Mass.), and the lower chamber of the Transwell was filled with either serum-free or serum-containing media. Sample cells (e.g., 6-TG-resistant HME-RhoC cells) were prepared to resuspend cells in a serum-free medium with 0.1% BSA at a concentration of 4×10^5 cells/mL. At this point, neither 6-thiopurine nor GSNO were added to the cells. The sample cells (0.5 mL) were added to the top chamber of a Transwell filter and were incubated for 24 h at 37° C. in a 10% CO2 incubator. The Transwell filters were fixed with methanol, stained with H&E, and cells in the serum-containing samples were counted. The number of cells that had invaded the serum-free medium-containing lower chambers was used as a control background. Results are given as percent invasion over that seen in HME-RhoC cells (100%) and represent mean and standard error values from triplicate measurements.
FIG. 11. Determination of cell invasiveness in the presence and absence of […] and/or a redox agent. […] The number of cells that had invaded the serum-free medium-containing lower chambers was used as a control background. Results are given as percent invasion over that seen in HME-RhoC cells (100%) and represent mean and standard error values from triplicate measurements.
(§1) FIG. 14. Determination of cell invasiveness in the presence and absence of thiopurines and/or redox agents. […] Western blot analysis representing the total expression of RhoC in these cells also is shown. (B) Experimental procedures for the determination of the time-dependent motility of cells using the QCM Cell Invasion Assay kit in the presence and absence of 6-TG and DETA/NO are described elsewhere herein.
(§2) The top chamber of a Transwell filter (6.5 mm with 8 μm pores, Costar; Corning, N.Y.) was coated with a 10 μL aliquot of 10 mg/mL Matrigel, and the lower chamber of the Transwell was filled with either serum-free or serum-containing media. Sample cells were prepared to resuspend cells in a serum-free medium with 0.1% BSA at a concentration of 4×10^5 cells/mL. […] The Transwell filters were fixed with methanol, stained with haematoxylin and eosin, and cells in the serum-containing samples were counted. The number of cells that had invaded the serum-free, medium-containing lower chambers was used as a control background.

A further test addresses T1, RhoA (Rattus norvegicus, UniProt P61589).
T1 construct: endogenous in cells; host or cells: A7r5 cells (rat aortic vascular smooth muscle)
Briefly: RhoA expression (Western) and RhoA G-LISA activity in A7r5 cells. In kind it is cell-based. As for the experimental part: (§3) FIG. 20. Determination of RhoA activity and MLC phosphorylation. […] Cell lysates in a buffer containing 1% NP-40, 10 mM EDTA, and 20 mM TrisHCl (pH 7.4) were centrifuged (50,000×g, 20 min) to remove solid matter. (A) The soluble cell extract was then used to perform Western blot analyses for RhoA and the MLC. This cell extract also was used for the co-IP-based ESI-MS analysis (FIG. 6). (B) A RhoA activity assay was colorimetrically determined using cell extract; the assay was performed with the RhoA G-LISA Activation Assay Kit (Cat. No. BK124) (Denver, Colo.). To examine the level of phosphorylation of the MLC, cells were cultured with ˜5 μCi of ^32P in 1 mL of phosphate-free DMEM. The collected cell extract was nutated with resin coupled with a macrophage myosin II antibody at 4° C. for 5 h. Resin was collected by centrifugation, and proteins bound to the resin were washed and eluted with a buffer (80° C.) containing […], 5 mM DTT, and 10 mM TrisHCl (pH 6.8). The immunoprecipitates were then analyzed by SDS-PAGE and autoradiographed. The values of RhoA activity and the MLC phosphorylation determined from untreated cells were set at 100%. […] The data represented in the figure represent the mean values of triplicate measurements, and the vertical error bar indicates standard errors.

The subject of test [2] is SUM149 cells. Briefly: MTT cell viability and caspase-3/8 assays. To be noted: NO donor alone; FIG. 25. It is filed as cell-based, human. From the text:
(§4) FIG. 25. […] (B) Caspase-3/8 assay: the apoptotic activity of sample cells treated with the apoptotic inducer was set to be 100%, and other results were then expressed as normalized values against the mean value associated with the treatment with the apoptotic inducer. For both (A) and (B), all values represent the mean values and standard error values from triplicate measurements.

Test [3] deals with HME-C20S RhoC cells. Put plainly: MTT cell viability and caspase-3/8 assays. It is filed as cell-based, human. The conditions noted are these: NO donor alone; FIG. 25.
Excerpt: as §4

In test [4] the test system is HME-RhoC cells. Put plainly: MTT cell viability and caspase-3/8 assays. To be noted: NO donor alone; FIG. 25. In kind it is cell-based, human.
Excerpt: as §4

The test system of test [5] is SUM149 cells. Put plainly: Matrigel invasion (cell motility) assay. In kind it is cell-based, human. The conditions noted are these: NO donor alone 10 μM, three days continuous; FIG. 14A.
Excerpt: as §1, §2

Test [6] deals with HME-C20S RhoC cells. Briefly: Matrigel invasion (cell motility) assay. In kind it is cell-based, human. To be noted: NO donor alone 10 μM, three days continuous; FIG. 14A.
Excerpt: as §1, §2

In another test the target is RhoC C20S (Homo sapiens, UniProt P08134, C20S). Briefly: RhoC expression (Western) and RhoC activity assay in cells. It is filed as cell-based. Details: expressed in transfected cells; host or cells: human mammary epithelial (HME) cells. The conditions noted are these: HME-C20S RhoC cells, NO donor alone, three days. The protocol: as §1
(§5) Cells were lysed in an extraction buffer containing 50 mM NaCl, 5 mM MgCl2, 1 mM ethylenediaminetetraacetic acid (EDTA), 0.1 mM diethylenetriaminepentaacetic acid (DTPA), and 0.1% NP40 in 150 mM TrisHCl (pH 8.0). The content of […] RhoC in cells then was determined by using Western analysis that relies on a monoclonal anti-RhoC antibody (Biocompare, South San Francisco, Calif.). To determine RhoC activity, the colorimetric RhoA activation assay Biochem Kit (Cytoskeleton, Denver, Colo.) was used essentially as described in the previous study (Hall et al. Neoplasia 10, 797-803 (2008)) except that the RhoC specific antibody (vide supra), instead of the RhoA antibody included in the assay kit, was used for this analysis.

For another test, the system named is MLC. Put plainly: MLC phosphorylation in A7r5 cells. In kind it is cell-based, rat. To be noted: only NO donor, DETA/NO ≅10 μM, FIG. 20B. As for the experimental part: as §3
In a further test the target is RhoC (Homo sapiens, UniProt P08134). Put plainly: RhoC expression (Western) and RhoC activity assay in cells. It is filed as cell-based. Details: endogenous in cells; host or cells: SUM149, SUM102, SW480, HCCLM3 (endogenous); HME-RhoC (transfected with wild type RhoC). The conditions noted are these: SUM149 and HME-RhoC cells, NO donor alone, three days. As for the experimental part:
as §1, §5

T1 sequence (P61589 whole entry): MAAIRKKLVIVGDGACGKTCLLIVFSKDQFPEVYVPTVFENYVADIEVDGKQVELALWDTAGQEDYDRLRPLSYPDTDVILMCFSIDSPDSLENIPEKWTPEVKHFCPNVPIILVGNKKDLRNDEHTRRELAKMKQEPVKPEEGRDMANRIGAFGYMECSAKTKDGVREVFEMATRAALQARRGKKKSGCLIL
Chain of RhoC C20S (P08134 whole entry C20S): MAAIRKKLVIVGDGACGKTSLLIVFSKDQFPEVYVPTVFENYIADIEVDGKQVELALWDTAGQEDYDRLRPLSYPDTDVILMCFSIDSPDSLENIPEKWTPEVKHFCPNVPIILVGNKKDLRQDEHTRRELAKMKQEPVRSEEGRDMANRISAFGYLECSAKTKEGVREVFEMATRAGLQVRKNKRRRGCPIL
Chain of RhoC (P08134 whole entry): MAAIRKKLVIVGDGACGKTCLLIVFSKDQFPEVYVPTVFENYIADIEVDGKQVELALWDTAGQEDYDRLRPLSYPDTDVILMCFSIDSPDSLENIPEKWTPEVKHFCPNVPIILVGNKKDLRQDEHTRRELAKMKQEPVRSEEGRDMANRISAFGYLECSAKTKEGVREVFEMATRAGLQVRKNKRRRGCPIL

For the compound `NCCN(CCN)/[N+]([O-])=N/O` [DETA/NO, diethylenetriamine nitric oxide adduct], the “effect on invasive cell motility” value with HME-RhoC cells [1], in the test on SUM149 cells [5] and in the test with HME-C20S RhoC cells [6] was “minimal” throughout. Also, the “concentration of NO donor alone required for RhoA inactivation” value at RhoA (not shown) was above 50 µM. Also, on RhoA (only NO donor, DETA/NO ≅10 μM, FIG. 20B), the RhoA inactivation entry is listed as “minimal fraction of RhoA was inactivated”. Besides, the “cell viability and caspase activity” value in the test on SUM149 cells [2], with HME-C20S RhoC cells [3] and in the test on HME-RhoC cells [4] was “minimally changed” throughout. In addition, the “effect on RhoC activity” value on RhoC C20S and on RhoC was “minimal” in each case. For the same compound, the MLC dephosphorylation result with MLC is “sizable fraction of the MLC was dephosphorylated”.
